Molecules are shown by their SMILES. pEC50: −log10 of the molar value. Like-named read-outs stand apart in the source and are kept apart here.

The target in data set [1] is T1, GLP-1 receptor (Rattus norvegicus, UniProt P32301).
T1 sequence (P32301 22-463): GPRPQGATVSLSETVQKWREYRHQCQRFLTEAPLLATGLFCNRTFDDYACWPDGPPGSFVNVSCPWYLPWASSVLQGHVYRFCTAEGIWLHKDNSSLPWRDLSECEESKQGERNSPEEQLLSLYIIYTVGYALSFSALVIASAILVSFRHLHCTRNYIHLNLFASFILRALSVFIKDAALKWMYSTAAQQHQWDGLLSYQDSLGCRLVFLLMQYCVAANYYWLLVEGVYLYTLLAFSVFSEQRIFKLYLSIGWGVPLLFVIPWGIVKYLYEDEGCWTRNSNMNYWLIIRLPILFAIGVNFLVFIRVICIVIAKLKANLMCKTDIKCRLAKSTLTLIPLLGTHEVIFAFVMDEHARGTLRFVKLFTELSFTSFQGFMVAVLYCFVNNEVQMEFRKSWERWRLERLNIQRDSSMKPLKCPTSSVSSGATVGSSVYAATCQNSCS
Particulars: for cAMP production by compound alone: absence of GLP-1; for intrinsic agonistic or antagonistic activity: summary of studies; for effect on GLP-1 dose-response curve / GLP-1 stimulated cAMP production: FIG. 9A. In general terms: Changes in cAMP serve as a functional read-out for many G protein-coupled receptors.
Description: (§1) In the resting stage when the intracellular cAMP is minimal, a large BRET ratio was observed.

In another data set the target is GLP-1 (Homo sapiens, UniProt P01275). In words: Limited trypsin digestion of GLP-1 peptide. Format: biochemical. Particulars: free GLP-1 or with galanal b; preliminary observation. The text has this:
This is consistent with the finding that GPCR can exist in multiple active conformations, distinct conformation of the receptor is stabilized by distinct ligand structure and may lead to distinct signaling selectivity (55). […] There are at least two possible mechanisms to account for these observations. […] By binding to and modifying structural conformation of the receptor, the allosteric inhibitor of parturition (PDC 113.824) induces biased signaling when an orthosteric ligand is co-bound to the prostaglandin F2α receptor (56). […] Subtle conformation changes in peptide agonists can lead to selective coupling of the receptor to its downstream signaling pathway. As it has been shown in the case of biased agonist for the type 1 parathyroid hormone receptor (PTH1R) (25) and angiotensin II type 1A receptor ligands (57), subtle structure change of the peptide ligands can profoundly stabilize a distinct conformation of the receptor protein that selectively affects the coupling efficiency of a particular downstream signaling pathway.

Data set [2] has as its system cAMP production elicited by GIP. Particulars: 0.025 mg/ml; FIG. 11.
Description: as §1
The target in data set [3] is T2, GLP-1 receptor (Homo sapiens, UniProt P43220).
T2 construct: expressed in transfected cells; host or cells: U2OS osteosarcoma cells stably expressing beta-arrestin2:GFP (Norak Biosciences)
T2 sequence (P43220 24-463, species assumed): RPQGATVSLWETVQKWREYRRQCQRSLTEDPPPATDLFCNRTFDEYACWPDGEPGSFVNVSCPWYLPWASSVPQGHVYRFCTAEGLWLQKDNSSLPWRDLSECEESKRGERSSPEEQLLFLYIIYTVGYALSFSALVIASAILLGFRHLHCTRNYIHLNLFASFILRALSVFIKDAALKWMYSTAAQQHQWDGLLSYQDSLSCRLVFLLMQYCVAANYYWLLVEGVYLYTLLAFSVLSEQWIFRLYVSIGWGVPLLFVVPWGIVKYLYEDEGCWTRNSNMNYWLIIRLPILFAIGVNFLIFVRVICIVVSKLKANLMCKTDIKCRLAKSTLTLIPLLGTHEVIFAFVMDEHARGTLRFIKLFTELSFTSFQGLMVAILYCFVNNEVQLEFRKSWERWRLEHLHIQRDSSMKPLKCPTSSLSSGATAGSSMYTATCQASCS
Description: Receptor endocytosis assay, U2OS cells co-expressing GLP-1 receptor and β-arrestin2:GFP. Type of data set: cell-based. Particulars: for positive modulation effect on GLP-1 elicited receptor endocytosis in the presence of exendin 9: FIG. 8, plus 1.8 mM of Exendin 9; for Efficacy of GLP-1 to elicit receptor endocytosis: Table 2, printed (100%), GLP-1 only or GLP-1 plus indicated compound. Here is the method:
U2OS osteosarcoma cell line stably expressing a β-arrestin2:GFP fusion protein was obtained from Norak Biosciences (now Molecular Devices, part of MDS Inc., Mississauga, Ontario). […] Extracts were supplied at a concentration of 100 mg/ml in 100% DMSO. […] Plates were washed with PBS twice and sealed and could be stored at 4° C. The final concentration of the extract in the cell plate was 0.1, 0.03 and 0.001 mg/ml, and the final DMSO concentration was 1%.
Images and data of the cells were performed according to reported methods (51), using an ArrayScan® VTI HCS Reader (Cellomics, Inc. Pittsburgh, Pa.). […] A 20×0.4 numerical aperture microscope objective was used for the imaging, 3 fields were imaged per well, and CELLOMICS's Spot Detector BIOAPPLICATION was used to acquire and analyze the images. For these experiments, the Spot Detector BIOAPPLICATION used the Hoechst-labeled nuclei to identify individual cells and then automatically counted and analyzed the GFP-labeled spots associate with each cell. In addition to the number of spots and the sum of their areas and pixel intensities, the BIOAPPLICATION also reports properties of the individual nuclei such as their area.
One unit of activity is defined as the activity that will reach 50% of maximal response in a well of 384-well plate.
In addition, these processes can be visualized from its image (52), thus easily exclude false positive hits.

The test system of data set [4] is cAMP production elicited by glucagon. Particulars: 0.025 mg/ml; FIG. 11.
Description: as §1
Data set [5] addresses T1, GLP-1 receptor. In words: cell-based.
Description: as §1
The next data set addresses T3, PTHR (Homo sapiens, UniProt Q03431).
T3 construct: expressed in transfected cells
T3 sequence (Q03431 27-593): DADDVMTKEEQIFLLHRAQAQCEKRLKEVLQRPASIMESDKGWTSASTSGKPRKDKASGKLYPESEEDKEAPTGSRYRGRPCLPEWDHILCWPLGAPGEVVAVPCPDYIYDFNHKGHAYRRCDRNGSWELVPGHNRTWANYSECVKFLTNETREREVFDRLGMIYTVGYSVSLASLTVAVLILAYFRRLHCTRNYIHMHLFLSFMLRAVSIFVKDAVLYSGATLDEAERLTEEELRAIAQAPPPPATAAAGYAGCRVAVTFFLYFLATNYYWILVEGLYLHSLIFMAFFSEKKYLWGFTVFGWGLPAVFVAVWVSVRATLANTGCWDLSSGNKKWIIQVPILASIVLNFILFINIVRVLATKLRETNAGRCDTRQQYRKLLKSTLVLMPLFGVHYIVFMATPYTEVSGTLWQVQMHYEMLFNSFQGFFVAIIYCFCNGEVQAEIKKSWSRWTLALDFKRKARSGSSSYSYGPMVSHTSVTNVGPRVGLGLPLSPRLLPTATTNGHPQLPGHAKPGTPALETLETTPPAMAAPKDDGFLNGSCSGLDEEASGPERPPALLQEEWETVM
In words: PTH induced receptor endocytosis, PTHR/β-arrestin 2 GFP U2OS cells. The following applies: 15 nM of PTH; FIG. 5B. Format: cell-based. Here is the method: The GLP-1R/3-arrestin2 GFP (Panel A) or PTHR/β-arrestin 2 GFP (Panel B) double stable expression U2OS cells were plated in 384-well plastic plates at a density of 3000 cell/well and cultured overnight.
U2OS osteosarcoma cell line stably expressing a β-arrestin2:GFP fusion protein was obtained from Norak Biosciences (now Molecular Devices, part of MDS Inc., Mississauga, Ontario). […] Extracts were supplied at a concentration of 100 mg/ml in 100% DMSO. […] The 3 cell assay plates were incubated at room temperature for 60 min before fixation with 2% formaldehyde and labeling of the cell nuclei with 5 μg/mL of the DNA-binding dye Hoechst 33342 (Molecular Probes, Eugene, Oreg.) for 1 hr. Plates were washed with PBS twice and sealed and could be stored at 4° C. The final concentration of the extract in the cell plate was 0.1, 0.03 and 0.001 mg/ml, and the final DMSO concentration was 1%.

Chain of GLP-1 (P01275 98-127 limits assumed): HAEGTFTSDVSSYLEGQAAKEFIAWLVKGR

A word on the melting point: it is the temperature of the solid-liquid transition. As to `COC(=O)C1=CC[C@H]2[C@@H](CC[C@H]3C(C)(C)CCC[C@]23C)C(=O)C1` (racemic) [RJ-011, (±)-(6aS,11aS,11bR)-methyl 4,4,11b-trimethyl-7-oxo-2,3,4,4a,5,6,6a,7,8,11,11a,11b-dodecahydro-1H-cyclohepta[a]naphthalene-9-carboxylate], the melting point was in the range of 93 to 94 °C.

The molecule `CC1(C)CCC[C@]2(C)[C@H]3CC=C(CO)C[C@@H](O)[C@@H]3CC[C@@H]12` (racemic) [RJ-013, (±)-(6aS,7R,11aS,11bR)-9-(hydroxymethyl)-4,4,11b-trimethyl-2,3,4,4a,5,6,6a,7,8,11,11a,11b-dodecahydro-1H-cyclohepta[a]naphthalen-7-ol] displayed a melting point of 134 to 135 °C.

Regarding `COC(=O)[C@@H]1CC[C@H]2C(CC[C@H]3C(C)(C)CCC[C@]23C)C(=O)C1` (mixture of isomers) [RJ-015, (±)-(6aS,11aS,11bR)-methyl 4,4,11b-trimethyl-7-oxotetradecahydro-1H-cyclo-hepta-[a]naphthalene-9-carboxylate], the melting point was in the range of 67 to 68 °C.

For `COc1cc(C2C(NC(=O)c3ccc(NC(=O)OC(C)(C)C)cc3)(C(=O)O)C(c3ccc(OC(=O)c4cccs4)c(OC)c3)C2(NC(=O)c2ccc(NC(=O)OC(C)(C)C)cc2)C(=O)O)ccc1OC(=O)c1cccs1` (stereo not drawn) [Boc5, reference compound], the “concentration needed to stimulate low level cAMP production, fold higher” value on GLP-1 receptor [1] (RINm5F cells) is reported as 1000 fold.

For the molecule `CC[C@H](C)[C@H](NC(=O)[C@H](Cc1ccccc1)NC(=O)[C@H](CCC(=O)O)NC(=O)[C@H](CCCCN)NC(=O)[C@H](C)NC(=O)[C@H](C)NC(=O)[C@H](CCC(N)=O)NC(=O)CNC(=O)[C@H](CCC(=O)O)NC(=O)[C@H](CC(C)C)NC(=O)[C@H](Cc1ccc(O)cc1)NC(=O)[C@H](CO)NC(=O)[C@H](CO)NC(=O)[C@@H](NC(=O)[C@H](CC(=O)O)NC(=O)[C@H](CO)NC(=O)[C@@H](NC(=O)[C@H](Cc1ccccc1)NC(=O)[C@@H](NC(=O)CNC(=O)[C@H](CCC(=O)O)NC(=O)[C@H](C)NC(=O)[C@@H](N)Cc1c[nH]cn1)[C@@H](C)O)[C@@H](C)O)C(C)C)C(=O)N[C@@H](C)C(=O)N[C@@H](Cc1c[nH]c2ccccc12)C(=O)N[C@@H](CC(C)C)C(=O)N[C@H](C(=O)N[C@@H](CCCCN)C(=O)NCC(=O)N[C@@H](CCCNC(=N)N)C(=O)NCC(=O)O)C(C)C` [GLP-1], on GLP-1, the “degradation of GLP-1 by limited trypsin digestion” value is “quickly degraded”.

In the case of `Cl.c1ccc(C2CCCC2NC2=NCCCCCCCCCCC2)cc1` (stereo not drawn) [MDL 12330A, reference compound], the “GLP-1 or forskolin dose response of cAMP (BRET ratio) in presence of inhibitor” value on GLP-1 receptor [1] (250 μM) is “eliminated”.

For `COC(=O)C1=CCC2C(CO)(CCC3C(C)(C)CCCC32C)C(=O)C1` [RJ-022, (6aR,1aR,11bS)-methyl6a-(hydroxymethyl)-4,4,11b-trimethyl-7-oxo-2,3,4,4a,5,6,6a,7,8,11,11a,11b-dodecahydro-1H-cyclohepta[a]naphthalene-9-carboxylate], the melting point was in the range of 179 to 180 °C.

What is called pEC50 is the EC50 on a negative log10 scale, so that one unit is a factor of ten. Read a high pEC50 as a low EC50. Take `CC1(C)CCC[C@@]2(C)[C@H]1CC[C@@]1(CO)C(O)CC(CO)=CC[C@@H]12` (stereo partly drawn) [compound 2]: the “effect on cAMP production elicited by GIP” value in data set [2] is “do not affect”. On GLP-1 receptor [3], the “positive modulation effect on GLP-1 elicited receptor endocytosis in the presence of exendin 9” value is “diminished” and the “Efficacy of GLP-1 to elicit receptor endocytosis” value is 82%. Also, on GLP-1 receptor [1] (3 nM of GLP-1, FIG. 9B), the “concentration at which enhancement of cAMP production became saturated” value came to 0.03 mg/mL. In addition, the “left shift of dose response curve of GLP-1” value on GLP-1 receptor [1] (0.0025 mg/ml of compound 2) is reported as 2.5 orders of magnitude. Besides, the “potentiating effect on GLP-1 stimulated cAMP production in presence of exendin 9 or MDL12330A” value on GLP-1 receptor [1] (FIG. 10A, 10B) is given as “blocked”. In addition, at GLP-1 receptor [1] (RINm5F cells), the “effect on cAMP production by small molecule agonist Boc5” value is recorded as “little effect” and the “potentiation of the affinity of GLP-1 / GLP-1 dependent cAMP production” value is “up to 1000 fold”. Further, the “potentiation of the affinity of GLP-1 / GLP-1 dependent cAMP production” value at GLP-1 receptor [1] (RINm5F cells, listed as Compound 2) is recorded as 1000 fold. Moreover, at GLP-1 receptor [1], the “cAMP production by compound alone” value is listed as “not able to induce cAMP production” and the “intrinsic agonistic or antagonistic activity” value is “without intrinsic agonistic or antagonistic activity”. The “cAMP production by compound alone” value on GLP-1 receptor [1] (listed as Compound 2) was “does not elicit cAMP production in the absence of GLP-1”. The “effect on cAMP production elicited by glucagon” value in data set [4] is “do not affect”. Further, the pEC50 on GLP-1 receptor [5] was 5.51.

With `CC1(C)CCC[C@@]2(C)C1CC[C@@]1(C=O)[C@H](O)CC(C=O)=CC[C@@H]12` (stereo partly drawn) [galanal B], the “potentiation effect on PTH induced receptor endocytosis (selectivity)” value at PTHR was “did not show similar effect on PTH and its cognate receptor”. The “degradation of GLP-1 by limited trypsin digestion” value on GLP-1 is given as “protects GLP-1 from trypsin degradation”. On GLP-1 receptor [3] (FIG. 5C, 0.001 mg/ml of galanal B), the “increase of the affinity of GLP-1” value came to 4 folds. Moreover, on GLP-1 receptor [3], the “positive modulation effect on GLP-1 elicited receptor endocytosis in the presence of exendin 9” value was “diminished” and the “Efficacy of GLP-1 to elicit receptor endocytosis” value is given as 115.2%. For the same molecule, on GLP-1 receptor [1] (RINm5F cells), the “effect on GLP-1 dose-response curve / GLP-1 stimulated cAMP production” value is reported as “did not significantly affect”. In addition, the “effect on GLP-1 dose-response curve / GLP-1 stimulated cAMP production” value at GLP-1 receptor [1] (RINm5F cells, listed as galanal b) is “neutral”. On GLP-1 receptor [1] (galanal B up to 0.04 mg/ml, FIG. 9B), the “cAMP production by 3 nM of GLP-1” value is “not changed”. On GLP-1 receptor [1], the “intrinsic agonistic or antagonistic activity” value was “without intrinsic agonistic or antagonistic activity”.

Turning to `CC1(C)CCC[C@]2(C)[C@H]3CC=C(C=O)C[C@@H](O)[C@]3(C=O)CC[C@@H]12` [galanal B], on PTHR, the “potentiation effect on PTH induced receptor endocytosis (selectivity)” value is “selective for GLP-1 but not for PTH”. The “EC50 to potentiate receptor endocytosis elicited by 4 nM GLP-1” value at GLP-1 receptor [3] (4 nM GLP-1) stood at 0.24 µg/mL. Also, the “GLP-1 response potentiated by the fraction” value on GLP-1 receptor [3] (0.0002 mg/ml, 4 nM GLP-1, from 20%) worked out at 40%.

(Values after US20150197480A9 (Academia Sinica, priority 2013, published 2015).)
